This passage reports IC50 results from US20230099031A1, “BIFUNCTIONAL AGENTS FOR PROTEIN RECRUITMENT AND/OR DEGRADATION” (Orionis Biosciences, Inc., priority 2019, published 2023).

For orientation: IC50 means the point on the concentration scale where inhibition reaches its midpoint.

Structures can show the parent of a compound that is named as a salt.

The first test has as its target T1, CRBN (Homo sapiens, UniProt Q96SW2).
T1 construct: expressed in transfected cells; host or cells: HEK293T
In words: Competition Assay: MAPPIT-like, competition with trimethoprim-lenalidomide hybrid ligand for binding to CRBN in HEK293T cells. Format: cell-based. Conditions: HEK293T cells, 300 nM trimethoprim-lenalidomide hybrid ligand, luciferase 24 hours after compound treatment; read-out: Competition IC50. An excerpt:
A bait protein (protein A) is expressed as a fusion protein in which it is genetically fused to an engineered intracellular receptor domain of the leptin receptor, which is itself fused to the extracellular domain of the erythropoietin (Epo) receptor. Binding of Epo ligand to the EpoR component results in activation of receptor-associated intracellular JAK2. However, activated JAK2 cannot activate the leptin receptor to trigger STAT3 binding and its phosphorylation because its tyrosine residues, normally phosphorylated by activated JAK2, have been mutated. Reconstitution of a JAK2 phosphorylatable STAT3 docking site is instead created through interaction of a protein B with protein A, whereby protein B is fused to a cytoplasmic domain of the gp130 receptor (which now harbors appropriate tyrosine resides recognized by the activated JAK2 kinase). Thus, physical interaction of protein A with protein B reconstitutes and Epo triggers JAK2-STAT3 signaling pathway activation. Activation of STAT3 can be monitored by introduction of a STAT3-responsive reporter gene, including a luciferase-encoding gene or a gene encoding a fluorescent marker such as GFP or some other type of fluorescent protein (EGF etc.). In this manner, the MAPPIT assay provides a versatile assay to assess such recombinant protein-protein interactions, or compound- or hybrid ligand-induced protein-protein interactions, in intact cells.
Formation of the complex results in activation of a STAT-responsive luciferase reporter gene. That signal is set to 100% luciferase activity. In a separate sample set up, cells are prepared in the same manner but, in addition, co-incubated with a test compound whose interaction with CRBN is investigated. […] Increasing concentrations of test compound are assessed to determine CRBN binding efficiency as determined in this type of ligand competition experiment in living cells. Specificity of signal inhibition is assessed by a parallel experimental set up in which test compound effect is assessed for inhibition of signal generated by a control gp130 fusion protein (CTRL) that directly binds to the DHFR-fusion protein in the absence of hybrid ligand (i.e. a direct interaction of the proteins).
In more detail, HEK293T cells are cultured in Dulbecco's modified Eagle's medium supplemented with 10% fetal calf serum, incubated at 37° C., 8% CO2. […] Data points represent the average luciferase activity of triplicate samples derived from cells treated with leptin+test compound for the REM2 control (CTRL) or cells treated with leptin+hybrid ligand+test compound (CRBN) relative to leptin (CTRL) or leptin+hybrid ligand (CRBN) only treated samples (the signals obtained in absence of added test compound for both cases is set at 100% of luciferase activity on y-axis). Error bars represent standard deviations. Curves are fit using 4-parameter nonlinear regression in […] PRISM software
For `Cc1sc2c(c1C)C(c1ccc(Cl)cc1)=N[C@@H](CC(=O)NCCOCCOCCOCCOCCNC(=O)COc1cccc3c1CN(C1CCC(=O)NC1=O)C3=O)c1nnc(C)n1-2` (stereo partly shown) [Compound 5.57], the IC50 stood at 0.109 µM.

In the case of `CC(C)(C)OC(=O)NCCOCCOCCOCCn1cc(CNc2nc(Nc3ccc4c(c3)CN(C3CCC(=O)NC3=O)C4=O)c3ccsc3n2)nn1` (stereo not shown) [Compound 5.02], the IC50 came to 0.376 µM. Same read-out and setting: to `C#CCOCCOCCOCCNC(=O)COc1ccc2nc(C(=O)Nc3ccc4c(c3)C(=O)N(C3CCC(=O)NC3=O)C4)ccc2c1` (stereo not shown) [Compound 5.03] belongs 0.873 µM; to `C#CCOCCOCCOCCOCC(=O)Nc1ccc(-c2cccc3c2C(=O)N(C2CCC(=O)NC2=O)C3)cc1` (stereo not shown) [Compound 5.05], 0.194 µM.

The same test, now with this note: protocol and reagents of Example 1; read-out: IC50 Competition.
Turning to `O=C1CCc2cc(C(=O)N3CCc4cccnc43)cnc2N1` [Compound C36128, 6-(2,3-dihydropyrrolo[2,3-b]pyridine-1-carbonyl)-3,4-dihydro-1H-1,8-naphthyridin-2-obe], the IC50 stood at 20.3 µM. On the same count and under the same terms, to `O=C1CCC(N2Cc3ccc(NC(=O)c4ccc5cnccc5n4)cc3C2=O)C(=O)N1` (stereo not shown) [Compound C80393, N-[2-(2,6-dioxo-3-piperidyl)-3-oxo-isoindolin-5-yl]-1,6-naphthyridine-2-carboxamide] belongs 0.007 µM; to `Cc1cc2[nH]cnc(Nc3ccc4c(c3)C(=O)N(C3CCC(=O)NC3=O)C4)c-2n1` (stereo not shown) [Compound C80390, 3-[6-[(6-methylpyrrolo[3,2-d]pyrimidin-4-yl)amino]-1-oxo-isoindolin-2-yl]piperidine-2,6-dione], 0.729 µM; to `O=C1CCC(N2Cc3ccc(C(F)(F)F)cc3C2=O)C(=O)N1` (stereo not shown) [Compound C45748, 3-[1-oxo-6-(trifluoromethyl)isoindolin-2-yl]piperidine-2,6-dione], 0.953 µM. Same read-out and setting: as for `Cn1ncc2c(Nc3ccc4c(c3)C(=O)N(C3CCC(=O)NC3=O)C4)ncnc21` (stereo not shown) [Compound C80383, 3-[6-[(1-methylpyrazolo[3,4-d]pyrimidin-4-yl)amino]-1-oxo-isoindolin-2-yl]piperidine-2,6-dione], the figure is 0.148 µM; as for `CC1CN(C)CCN1C(=O)CNc1ccc2c(c1)C(=O)N(C1CCC(=O)NC1=O)C2` (stereo not shown) [Compound C12595, 3-[6-[[2-(2,4-dimethylpiperazin-1-yl)-2-oxo-ethyl]amino]-1-oxo-isoindolin-2-yl]piperidine-2,6-dione], 0.208 µM. On the same count and under the same terms, to `NC(=O)CNc1ccc2c(c1)C(=O)N(C1CCC(=O)NC1=O)C2` (stereo not shown) [Compound C84961, 2-[[2-(2,6-dioxo-3-piperidyl)-3-oxo-isoindolin-5-yl]amino]acetamide] belongs 4.01 µM; to `O=C(CNc1ccc2c(c1)C(=O)N(C1CCC(=O)NC1=O)C2)NCc1ccccc1` (stereo not shown) [Compound C84966, N-benzyl-2-[[2-(2,6-dioxo-3-piperidyl)-3-oxo-isoindolin-5-yl]amino]acetamide], 0.599 µM; to `NCc1ccc2c(c1)C(=O)N(C1CCC(=O)NC1=O)C2` (stereo not shown) [Compound C66979, 3-[6-(aminomethyl)-1-oxo-isoindolin-2-yl]piperidine-2,6-dione], 0.633 µM. For `O=C1CCC(N2C(=O)CC3(CCOCC3)C2=O)C(=O)N1` (stereo not shown) [Compound C64348, 2-(2,6-dioxo-3-piperidyl)-8-oxa-2-azaspiro[4.5]decane-1,3-dione], the IC50 worked out at 12.9 µM.

Turning to `CN1CCN(C(=O)CNc2ccc3c(c2)C(=O)N(C2CCC(=O)NC2=O)C3)CC1=O` (stereo not shown) [Compound C12597, 3-[6-[[2-(4-methyl-3-oxo-piperazin-1-yl)-2-oxo-ethyl]amino]-1-oxo-isoindolin-2-yl]piperidine-2,6-dione], the IC50 stood at 5.5 µM. The same measure, in the same setting: to `O=C(O)CNc1cccc2c1CN(C1CCC(=O)NC1=O)C2=O` (stereo not shown) [2-[[2-(2,6-dioxo-3-piperidyl)-1-oxo-isoindolin-4-yl]amino]acetic acid] belongs 13.8 µM; to `Nc1cccc2c1CCN(C1CCC(=O)NC1=O)C2=O` (stereo not shown) [Compound C47933, 3-(5-amino-1-oxo-3,4-dihydroisoquinolin-2-yl)piperidine-2,6-dione], 1.09 µM; to `NC1Cc2ccccc2C1=O` (stereo not shown) [Compound C75987, 2-aminoindan-1-one; hydrochloride], 11.2 µM. On to `O=C1CCC(Nc2ncccn2)C(=O)N1` (stereo not shown) [Compound C55468, 3-(pyrimidin-2-ylamino)piperidine-2,6-dione], for which the IC50 was found to be 8.68 µM.

Take `O=C1CCC(N2Cc3ccc(NC(=O)C4=C5C=CN=C5N=CC4)cc3C2=O)C(=O)N1` (stereo not shown) [Compound C80395, N-[2-(2,6-dioxo-3-piperidyl)-3-oxo-isoindolin-5-yl]-5H-pyrrolo[2,3-6]pyridine-4-carboxamide]: the IC50 came to 0.88 µM. The same measure, in the same setting: to `CC1CN(C(=O)CNc2ccc3c(c2)C(=O)N(C2CCC(=O)NC2=O)C3)CC(=O)N1` (stereo not shown) [Compound C12598, 3-[6-[[2-(3-methyl-5-oxo-piperazin-1-yl)-2-oxo-ethyl]amino]-1-oxo-isoindolin-2-yl]piperidine-2,6-dione] belongs 4.88 µM; to `O=C1N=CC(N2C(=O)c3ccccc3C2=O)C(=O)N1` (stereo not shown) [Compound C49278, 2-(2,6-dioxo-5H-pyrimidin-5-yl)isoindoline-1,3-dione], 45.4 µM; to `Cc1nc(N(C)C)cc2c1C(=O)N(C1CCC(=O)NC1=O)C2=O` (stereo not shown) [Compound C64376, 6-(dimethylamino)-2-(2,6-dioxo-3-piperidyl)-4-methyl-pyrrolo[3,4-c]pyridine-1,3-dione], 3.95 µM. On the same count and under the same terms, as for `N#Cc1cccc2c1C(=O)N(C1CCC(=O)NC1=O)C2` (stereo not shown) [Compound C48009, 2-(2,6-dioxo-3-piperidyl)-3-oxo-isoindoline-4-carbonitrile], the figure is 2.18 µM; as for `CC(C)(C)OC(=O)CC1c2ccccc2C(=O)N1C1CCC(=O)NC1=O` (stereo not shown) [Compound C98053, t-butyl 2-[2-(2,6-dioxo-3-piperidyl)-3-oxo-isoindolin-1-yl]acetate], 5.77 µM. Turning to `O=C1CCC(N2Cc3ccc(NCC(=O)N4CC5CC4CO5)cc3C2=O)C(=O)N1` (stereo not shown) [Compound C12589], the IC50 came to 10.3 µM. On the same count and under the same terms, to `O=C1CCC(N2Cc3ccc(NC(=O)c4ccc5ccccc5n4)cc3C2=O)C(=O)N1` (stereo not shown) [Compound C80392, N-[2-(2,6-dioxo-3-piperidyl)-3-oxo-isoindolin-5-yl]quinoline-2-carboxamide] belongs 2.05e-05 µM; to `CC1CC(NC(=O)CNc2ccc3c(c2)C(=O)N(C2CCC(=O)NC2=O)C3)CCO1` (stereo not shown) [Compound C12695, 2-[[2-(2,6-dioxo-3-piperidyl)-3-oxo-isoindolin-5-yl]amino]-N-(2-methyltetrahydropyran-4-yl)acetamide], 58 µM; to `CC(=O)Nc1cccc2c1C(=O)N(C1CCC(=O)NC1=O)C2` (stereo not shown) [Compound C29457, N-[2-(2,6-dioxo-3-piperidyl)-3-oxo-isoindolin-4-yl]acetamide], 10.4 µM. The same measure, in the same setting: as for `CC1CCCN(C(=O)CNc2ccc3c(c2)C(=O)N(C2CCC(=O)NC2=O)C3)C1` (stereo not shown) [Compound C12583, 3-[6-[[2-(3-methyl-1-piperidyl)-2-oxo-ethyl]amino]-1-oxo-isoindolin-2-yl]piperidine-2,6-dione], the figure is 0.0492 µM; as for `O=C1CCC(N2Cc3cccc(-c4ccccc4)c3C2=O)C(=O)N1` (stereo not shown) [Compound C48020, 3-(1-oxo-7-phenyl-isoindolin-2-yl)piperidine-2,6-dione], 0.546 µM.
